Results: ChEMBL document CHEMBL1201861, “Genomics of Drug Sensitity in Cancer screening data, Wellcome Trust Sanger Institute”
pIC50: −log10 of the molar value.

Tests used:
Format in all cases: functional, cell-based
NCI-H1975 = test: cells; details: Homo sapiens
Description: SANGER: Inhibition of human NCI-H1975 cell growth in a cell viability assay.

LU-135 = test: cells; details: Homo sapiens
Description: SANGER: Inhibition of human LU-135 cell growth in a cell viability assay.

D-566MG = test: cells; details: Homo sapiens
NCI-H2029 = test: cells; details: Homo sapiens;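 further: Read-out is a viability assay on the cultured cells, and IC50 is the concentration that suppresses cell growth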
Description: SANGER: Inhibition of human NCI-H2029 cell growth in a cell viability assay.

NCI-H1666 = test: cells; details: Homo sapiens;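 further: growth inhibition of the cell line, read out with a cell viability assay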
Description: SANGER: Inhibition of human NCI-H1666 cell growth in a cell viability assay.

RH-18 = test: cells; details: Homo sapiens, Rh18;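 further: growth inhibition of human RH-18 cells, read out with a cell viability assay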
Description: SANGER: Inhibition of human RH-18 cell growth in a cell viability assay.

SW900 = test: cells; details: Homo sapiens;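 further: IC50 is the concentration that inhibits SW900 cell growth, measured by a cell viability assay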
Description: SANGER: Inhibition of human SW900 cell growth in a cell viability assay.

A549 = test: cells; details: Homo sapiens;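 further: growth inhibition of A549 cells, read out with a cell viability assay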
Description: SANGER: Inhibition of human A549 cell growth in a cell viability assay.

BALL-1 = test: cells; details: Homo sapiens;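 further: growth inhibition of BALL-1 cells, read out with a cell viability assay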
Description: SANGER: Inhibition of human BALL-1 cell growth in a cell viability assay.

TI-73 = test: cells; details: Homo sapiens;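 further: cell viability assay measuring how much compounds suppress growth of the cultured cell line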
Description: SANGER: Inhibition of human TI-73 cell growth in a cell viability assay.

NCI-H2291 = test: cells; details: Homo sapiens
Description: SANGER: Inhibition of human NCI-H2291 cell growth in a cell viability assay.

SW 1116 = test: cells; details: Homo sapiens;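 further: growth inhibition of SW1116 cells, read out with a cell viability assay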
Description: SANGER: Inhibition of human SW1116 cell growth in a cell viability assay.

H9 = test: cells; details: Homo sapiens
Description: SANGER: Inhibition of human H9 cell growth in a cell viability assay.

YH-13 = test: cells; details: Homo sapiens;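 further: cell viability readout of growth suppression in the human YH-13 cell line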
Description: SANGER: Inhibition of human YH-13 cell growth in a cell viability assay.

EPLC-272H = test: cells; details: Homo sapiens
Description: SANGER: Inhibition of human EPLC-272H cell growth in a cell viability assay.

NCI-H1048 = test: cells; details: Homo sapiens;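 further: growth inhibition of human NCI-H1048 cells, read out with a cell viability assay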
Description: SANGER: Inhibition of human NCI-H1048 cell growth in a cell viability assay.

CFPAC-1 = test: cells; details: Homo sapiens;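 further: cell viability readout used to gauge suppression of CFPAC-1 cell proliferation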
Description: SANGER: Inhibition of human CFPAC-1 cell growth in a cell viability assay.

Caov-3 cell line = test: cells; details: Homo sapiens;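 further: cell growth inhibition read out by a viability assay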
Description: SANGER: Inhibition of human Caov-3 cell growth in a cell viability assay.

IPC-298 = test: SANGER: Inhibition of human IPC-298 cell growth in a cell viability assay.
SNG-M = test: cells; details: Homo sapiens
Description: SANGER: Inhibition of human SNG-M cell growth in a cell viability assay.

PLC-PRF-5 = test: cells; details: Homo sapiens;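 further: growth inhibition of human PLC-PRF-5 cells, read out with a viability assay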
Description: SANGER: Inhibition of human PLC-PRF-5 cell growth in a cell viability assay.

RT-4 = test: SANGER: Inhibition of human RT4 cell growth in a cell viability assay.
SK-CO-1 = test: cells; details: Homo sapiens;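 further: growth inhibition of SK-CO-1 cells, determined by a viability readout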
Description: SANGER: Inhibition of human SK-CO-1 cell growth in a cell viability assay.

MDA-MB-468 = test: cells; details: Homo sapiens
Description: SANGER: Inhibition of human MDA-MB-468 cell growth in a cell viability assay.

NCI-H838 = test: cells; details: Homo sapiens;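 further: growth inhibition of human NCI-H838 cells, read out by a cell viability assay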
Description: SANGER: Inhibition of human NCI-H838 cell growth in a cell viability assay.

NCI-H1734 = test: cells; details: Homo sapiens;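 further: growth inhibition of human NCI-H1734 cells, read out with a cell viability assay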
Description: SANGER: Inhibition of human NCI-H1734 cell growth in a cell viability assay.

HCC1143 = test: cells; details: Homo sapiens;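 further: growth inhibition of human HCC1143 cells, read out with a cell viability assay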
Description: SANGER: Inhibition of human HCC1143 cell growth in a cell viability assay.

MFE-296 = test: SANGER: Inhibition of human MFE-296 cell growth in a cell viability assay.
NCI-H2227 = test: cells; details: Homo sapiens;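 further: growth inhibition of the human cell line, read out with a cell viability assay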
Description: SANGER: Inhibition of human NCI-H2227 cell growth in a cell viability assay.

EFE-184 = test: cells; details: Homo sapiens
Description: SANGER: Inhibition of human EFE-184 cell growth in a cell viability assay.

DV-90 = test: cells; details: Homo sapiens;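 further: Read-out is a viability assay, with IC50 reflecting the drop in DV-90 cell growth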
Description: SANGER: Inhibition of human DV-90 cell growth in a cell viability assay.

NCI-H128 = test: SANGER: Inhibition of human NCI-H128 cell growth in a cell viability assay.; details: Homo sapiens, NCI-H128
SKM-1 = test: SANGER: Inhibition of human SKM-1 cell growth in a cell viability assay.; details: Homo sapiens, SKM-1
TC-YIK = test: SANGER: Inhibition of human TC-YIK cell growth in a cell viability assay.
Caov-4 = test: cells; details: Homo sapiens
Description: SANGER: Inhibition of human Caov-4 cell growth in a cell viability assay.

CP67-MEL = test: SANGER: Inhibition of human CP67-MEL cell growth in a cell viability assay.
KP-N-RT-BM-1 = test: SANGER: Inhibition of human KP-N-RT-BM-1 cell growth in a cell viability assay.

Row | SMILES | pIC50 (Caov-3 cell line) | pIC50 (IPC-298) | pIC50 (SNG-M) | pIC50 (PLC-PRF-5) | pIC50 (RT-4) | pIC50 (SK-CO-1) | pIC50 (MDA-MB-468) | pIC50 (NCI-H838) | pIC50 (NCI-H1734) | pIC50 (HCC1143) | pIC50 (MFE-296) | pIC50 (NCI-H2227) | pIC50 (EFE-184) | pIC50 (DV-90) | pIC50 (Caov-4) | other results
1 | CN(NC(=O)CC(=O)NN(C)C(=S)c1ccccc1)C(=S)c1ccccc1 [ELESCLOMOL] | – | – | – | – | – | – | – | – | – | – | – | – | – | – | – | pIC50 (NCI-H1975): < 6.70; pIC50 (LU-135): < 6.70; pIC50 (D-566MG): 7.82; pIC50 (NCI-H2029): < 6.70; pIC50 (NCI-H1666): < 6.70; pIC50 (RH-18): 7.13; pIC50 (SW900): 7.21; pIC50 (A549): 7.71; pIC50 (BALL-1): < 6.70; pIC50 (TI-73): 7.82; pIC50 (NCI-H2291): < 6.70; pIC50 (SW 1116): < 6.70; pIC50 (H9): 7.24; pIC50 (YH-13): 7.62; pIC50 (EPLC-272H): 7.54; pIC50 (NCI-H1048): 7.74; pIC50 (CFPAC-1): < 6.70
2 | C/C(=C\c1csc(C)n1)[C@@H]1C[C@@H]2O[C@]2(C)CCC[C@H](C)[C@H](O)[C@@H](C)C(=O)C(C)(C)[C@@H](O)CC(=O)O1 [PATUPILONE] | 7.86 | 7.66 | 9.24 | < 7.49 | < 7.49 | 8.04 | 8.76 | 7.93 | 7.80 | < 7.49 | 8.57 | < 7.49 | < 7.49 | 7.83 | – | –
3 | CC(C)C[C@H](NC(=O)[C@H](Cc1ccccc1)NC(=O)c1cnccn1)B(O)O [BORTEZOMIB] | – | – | – | – | – | – | – | – | – | – | – | < 7.70 | – | – | – | pIC50 (NCI-H128): < 7.70; pIC50 (SKM-1): < 7.70; pIC50 (TC-YIK): < 7.70
4 | Cc1ccc(C(=O)Nc2ccc(CN3CCN(C)CC3)c(C(F)(F)F)c2)cc1C#Cc1cnc2cccnn12 [PONATINIB] | < 6.29 | < 6.29 | < 6.29 | < 6.29 | 6.35 | < 6.29 | < 6.29 | < 6.29 | < 6.29 | < 6.29 | 6.93 | < 6.29 | < 6.29 | < 6.29 | < 6.29 | –
5 | NC(=O)c1ccc(N(C(N)=O)c2c(F)cccc2F)nc1-c1ccc(F)cc1F [VX-702] | – | – | – | – | – | – | – | – | – | – | – | – | – | – | – | pIC50 (NCI-H1975): < 5.70; pIC50 (LU-135): < 5.70; pIC50 (D-566MG): < 5.70; pIC50 (NCI-H2029): < 5.70; pIC50 (NCI-H1666): < 5.70; pIC50 (RH-18): < 5.70; pIC50 (SW900): < 5.70; pIC50 (A549): < 5.70; pIC50 (BALL-1): < 5.70; pIC50 (TI-73): < 5.70; pIC50 (NCI-H2291): < 5.70; pIC50 (SW 1116): < 5.70; pIC50 (YH-13): < 5.70; pIC50 (EPLC-272H): < 5.70; pIC50 (NCI-H1048): < 5.70; pIC50 (CFPAC-1): < 5.70
6 | O=S(=O)(O)c1ccc2cc(/N=N/c3cc(S(=O)(=O)O)c4cccnc4c3O)ccc2c1 | < 4.80 | < 4.80 | < 4.80 | < 4.80 | < 4.80 | < 4.80 | < 4.80 | < 4.80 | < 4.80 | < 4.80 | < 4.80 | < 4.80 | < 4.80 | < 4.80 | < 4.80 | –
7 | C[C@@H](Oc1cc(-c2cnn(C3CCNCC3)c2)cnc1N)c1c(Cl)ccc(F)c1Cl [CRIZOTINIB] | – | – | – | – | – | – | – | – | – | – | – | – | – | – | – | pIC50 (CP67-MEL): < 5.70; pIC50 (NCI-H128): < 5.70; pIC50 (KP-N-RT-BM-1): < 5.70; pIC50 (SKM-1): < 5.70; pIC50 (TC-YIK): < 5.70
8 | COC(=O)[C@H](CCSC)NC(=O)c1ccc(NC[C@@H](N)CS)cc1-c1ccccc1 | < 5.99 | < 5.99 | < 5.99 | < 5.99 | < 5.99 | < 5.99 | < 5.99 | < 5.99 | < 5.99 | < 5.99 | < 5.99 | < 5.99 | < 5.99 | < 5.99 | < 5.99 | –
9 | OC[C@H](Cc1ccccc1)Nc1nc(Oc2ccc3c(c2)CCC3)nc2c1ncn2Cc1ccc(-c2ccccc2)cc1 | < 4.99 | < 4.99 | 5.23 | < 4.99 | < 4.99 | < 4.99 | < 4.99 | < 4.99 | < 4.99 | < 4.99 | < 4.99 | < 4.99 | < 4.99 | < 4.99 | – | –
